In patent publication US5541186A, “Sulfonylaminopyrimidines” (Hoffmann-La Roche Inc., priority 1993, dated 1996):

Legend:
human ETA receptors = biological target: T1, human ETA receptors (Homo sapiens, UniProt P25101); experiment: Inhibition of endothelin binding to recombinant ETA receptors; conditions: 125I-endothelin 20 pM; 20° C. for 2 hours or 4° C. for 24 hours; baculovirus-insect cell membranes; read-out: IC50 (concentration required to inhibit 50% of the specific binding of 125I-endothelin)
T1 construct: made in house
T1 sequence (P25101 21-427): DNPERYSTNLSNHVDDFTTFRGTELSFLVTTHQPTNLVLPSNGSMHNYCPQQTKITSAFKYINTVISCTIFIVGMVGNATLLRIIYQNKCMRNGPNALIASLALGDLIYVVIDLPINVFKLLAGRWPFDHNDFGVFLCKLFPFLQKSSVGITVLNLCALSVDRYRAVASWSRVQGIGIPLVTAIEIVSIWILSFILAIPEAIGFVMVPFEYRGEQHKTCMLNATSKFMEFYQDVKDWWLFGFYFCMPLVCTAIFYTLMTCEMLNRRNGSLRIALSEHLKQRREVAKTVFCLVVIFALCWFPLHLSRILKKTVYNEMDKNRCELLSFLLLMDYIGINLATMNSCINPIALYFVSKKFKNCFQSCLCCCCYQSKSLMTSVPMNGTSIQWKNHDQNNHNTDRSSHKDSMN
Protocol: I: Inhibition of endothelin binding to recombinant ETA receptors
A cDNA coding for human ETA receptors of human placenta was cloned (M. Adachi, Y.-Y. Yang, Y. Furuichi and C. Miyamoto, BBRC 180, 1265-1272) and expressed in the baculovirus-insect cell system. Baculovirus-infected insect cells from a 23 l fermenter are centrifuged off (3000×g, 15 minutes, 4° C.) 60 hours after the infection, re-suspended in Tris buffer (5 mM, pH 7.4, 1 mM MgCl2) and again centrifuged. After a further re-suspension and centrifugation the cells are suspended in 800 ml of the same buffer and […] at -120° C. The cells disintegrate when the suspension in this hypotonic buffer mixture is thawed. After a repeated freeze-drying/thawing cycle the suspension is homogenized and centrifuged (25000 ×g, 15 minutes, 4° C.). After suspension in Tris buffer (75 mM, pH 7.4, 25 mM MgCl2, 250 mM saccharose) 1 ml aliquots (protein content about 3.5 mg/ml) are stored at -85° C.
For the binding assay, the […] membrane preparations are thawed and, after centrifugation at 20° C. and 25000 g for 10 minutes, re-suspended in assay buffer (50 mM Tris buffer, pH 7.4, containing 25 mM MnCl2, 1 mM EDTA and 0.5% bovine serum albumin). […] of this membrane suspension containing […] of protein are incubated with […] of ^125 I-endothelin (specific activity 2200 Ci/mMol) in assay buffer (25000 cpm, final concentration 20 pM) and […] of assay buffer containing varying concentrations of test compound. The incubation is carried out at 20° C. for 2 hours or at 4° C. for 24 hours. The separation of free and membrane-bound radio-ligands is carried out by filtration over a glass fiber filter.
The inhibitory activity of compounds of formula I determined in this test procedure is given in Table 1 as the IC50, i.e. as the concentration […] which is required to inhibit 50% of the specific binding of ^125 I-endothelin.

[1] = test system: endothelin-induced contractions in isolated rat aorta rings; experiment: Inhibition of endothelin-induced contractions in isolated rat aorta rings; format: cell-based, rat (adult Wistar-Kyoto); conditions: endothelin-1, no antagonist; half-maximum contraction; read-out: EC50 of endothelin in the absence of test compounds
Protocol: II. Inhibition of endothelin-induced contractions in isolated rat aorta rings
Rings with a length of 5 mm were cut out from the thorax aorta of adult Wistar-Kyoto rats. The endothelium was removed by lightly rubbing the internal surface. Each ring was immersed at 37° C. in 10 ml of Krebs-Henseleit solution in an isolated bath while gassing with 95% O2 and 5% CO2. The isometric stretching of the tings was measured. The rings were stretched to a pre-tension of 3 g. After incubation for 10 minutes with the test compound or vehicle cumulative dosages of endothelin-1 were added. The activity of the test compound was ascertained by the observed shift to the right of the dosage-activity curve of endothelin-1 in the presence of different concentrations of antagonist. This shift to the right (or "dose ratio", DR) corresponds to the quotient from the EC50 values of endothelin-1 in the presence and in the absence of antagonist, with the EC50 value denoting the endothelin concentration required for a half-maximum contraction.
The corresponding PA2 value, which is a measure of the activity of the test compound, was calculated using a computer programme according to the following equation from the "dose ratio" DR for each individual dosage-activity curve.
pA2 =log(DR-1)-log(antagonist-concentration)
The EC50 of endothelin in the absence of test compounds is 0.3 nM.

[2] = test system: "stroke-prone", spontaneously hypertensive rats; experiment: In vivo blood pressure in pathophysiologically relevant rat model (telemetry); conditions: 30 mg/kg in gum arabic, by probe
Protocol: A telemetric system (PA-C40 implant) was implanted into "stroke-prone", spontaneously hypertensive rats under anaesthesia in order that the arterial blood pressure and the heart rate could be measured continuously. The animals were left to recover for 2 weeks after the operation.
The corresponding test compound (30 mg/kg in gum arabic) was finally administered using a probe and the blood pressure was registered continuously. It became evident that compounds of formula I caused a fall in blood pressure, the administration of gum arabic alone (placebo control) having no significant effect on the blood pressure.

| IC50 (human ETA receptors) [nM] | Compound | EC50 [1] [nM] | % Decrease in the average arterial blood pressure (mm Hg) [2] [%] |
| --- | --- | --- | --- |
| 7 | COc1ccc(S(=O)(=O)Nc2ncnc(OCCOC(=O)Nc3ccccn3)c2Oc2ccccc2OC)cc1CCC(=O)N1CCOCC1 [Example 120, pyridin-2-ylcarbamic acid 2-[6-[4-methoxy-3-(3-morpholin-4-yl-3-oxo-propyl)-phenylsulfonylamino]-5-(2-methoxy-phenoxy)-pyrimidin-4-yloxy]-ethyl ester] | – | – |
| 1 | COCCc1nc(NS(=O)(=O)c2ccc3c(c2)OCO3)c(Oc2cc(OC)ccc2Cl)c(OCCOC(=O)Nc2ccccn2)n1 [Example 10, pyridine-2-ylcarbamic acid 2-[6-(1,3-benzodioxol-5-ylsulfonylamino)-5-(2-chloro-5-methoxy-phenoxy)-2-(2-methoxyethyl)-pyrimidin-4-yloxy]-ethyl ester] | – | – |
| 44 | COc1ccc(Cl)c(Oc2c(NS(=O)(=O)c3ccc(C(C)(C)C)cc3)ncnc2OCCNC(=O)Nc2ccncc2)c1 [Example 134] | – | – |
| 3 | COc1ccccc1Oc1c(NS(=O)(=O)c2ccc(C(C)(C)C)cc2)nc(N2CCOCC2)nc1OCCOC(=O)Nc1ccco1 [Example 75, furan-2-ylcarbamicacid 2-[6-(4-tert-butyl-phenylsulfonylamino)-5-(2-methoxy-phenoxy)-2-morpholin-4-yl-pyrimidin-4-yloxy]-ethyl ester] | – | – |
| 9 | COc1ccc(Cl)c(Oc2c(NS(=O)(=O)c3ccc4c(c3)OCO4)ncnc2OCCOC(=O)OCc2ccccn2)c1 [Example 140, carboxylic acid 2-[6-(1,3-benzodioxol-5-ylsulfonylamino)-5-(2-chloro-5-methoxy-phenoxy)-pyrimidin-4-yloxy]-ethyl ester pyridin-2-ylmethyl ester] | – | – |
| – | endothelin: endothelin-1, agonist added in cumulative dosages to the rat aorta rings | 0.3 | – |
| 6 | COc1ccccc1Oc1c(NS(=O)(=O)c2ccc(C(C)(C)C)cc2)nc(-c2ncccn2)nc1OCCOC(=O)Nc1ccccn1 [Example 70, pyridin-2-ylcarbamic acid 2-[6-(4-tert-butyl-phenylsulfonylamino)-5-(2-methoxy-phenoxy)-2,2'-bipyrimidin-4-yloxy]-ethyl ester] | – | 30 |
